Data on 24 compounds can be found in US10711004B2 (Genentech, Inc., priority 2018, dated 2020).

A word on the IC50: it is the concentration at which inhibition is half-maximal.

Read-outs that look alike come from different tables or passages of the source.

The target of this assay is human TRPA1 channel (Homo sapiens (Human), UniProt O75762). In words: hTRPA1 CHO Ca2+ FLIPR Tetra assay, block of cinnamaldehyde induced calcium influx. Conditions: CHO cells expressing TRPA1, Hill coefficient fixed to 1.5. It is filed as cell-based. In a few lines:
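Calcium-dye-loaded TRPA1-expressing CHO cells in HBSS/20 mM HEPES pH 7.4, 0.02% BSA were preincubated with compound for 10 or 90 min at room temperature. Calcium influx evoked by roughly an EC50 concentration of cinnamaldehyde was then read on FLIPR Tetra; IC50 came from curve fits with a fixed Hill coefficient.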

The mark [1] stands for this setting: read-out: hTRPA1 IC50 (10 min), compounds incubated 10 minutes at room temperature before cinnamaldehyde agonist.
Where [2] appears, read: read-out: hTRPA1 IC50 (90 min), compounds incubated 90 minutes at room temperature before cinnamaldehyde agonist.
Setting [3] is: compounds incubated 90 minutes at room temperature before cinnamaldehyde agonist.

Sequence of human TRPA1 channel (O75762 whole entry): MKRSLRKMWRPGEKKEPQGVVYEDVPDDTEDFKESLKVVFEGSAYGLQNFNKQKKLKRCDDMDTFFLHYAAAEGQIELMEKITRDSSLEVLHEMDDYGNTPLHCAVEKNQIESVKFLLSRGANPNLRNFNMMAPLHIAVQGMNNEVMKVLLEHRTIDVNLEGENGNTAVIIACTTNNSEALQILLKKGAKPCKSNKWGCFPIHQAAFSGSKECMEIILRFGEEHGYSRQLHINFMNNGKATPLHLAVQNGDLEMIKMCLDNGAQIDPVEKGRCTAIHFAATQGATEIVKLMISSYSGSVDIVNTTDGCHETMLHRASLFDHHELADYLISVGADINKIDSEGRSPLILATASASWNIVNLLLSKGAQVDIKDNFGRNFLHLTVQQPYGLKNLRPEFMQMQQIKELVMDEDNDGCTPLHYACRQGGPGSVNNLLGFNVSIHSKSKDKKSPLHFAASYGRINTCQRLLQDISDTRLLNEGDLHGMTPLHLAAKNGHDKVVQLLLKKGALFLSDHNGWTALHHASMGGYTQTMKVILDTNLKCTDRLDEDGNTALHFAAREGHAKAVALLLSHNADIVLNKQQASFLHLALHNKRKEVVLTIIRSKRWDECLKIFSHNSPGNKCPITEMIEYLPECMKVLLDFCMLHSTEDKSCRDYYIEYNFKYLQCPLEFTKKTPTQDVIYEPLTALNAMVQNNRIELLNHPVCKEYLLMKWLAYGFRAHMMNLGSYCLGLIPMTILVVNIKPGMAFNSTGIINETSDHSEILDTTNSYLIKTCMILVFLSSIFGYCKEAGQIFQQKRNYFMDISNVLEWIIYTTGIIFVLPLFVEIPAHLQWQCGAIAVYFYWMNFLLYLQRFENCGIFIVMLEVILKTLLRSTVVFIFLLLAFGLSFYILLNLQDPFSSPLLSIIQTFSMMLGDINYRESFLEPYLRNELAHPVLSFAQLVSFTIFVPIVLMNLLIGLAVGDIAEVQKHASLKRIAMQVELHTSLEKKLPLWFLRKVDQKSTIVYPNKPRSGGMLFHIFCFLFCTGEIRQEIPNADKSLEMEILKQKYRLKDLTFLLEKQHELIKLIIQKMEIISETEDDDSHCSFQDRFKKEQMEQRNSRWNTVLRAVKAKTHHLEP

In the case of `Cn1cnc2ncn(Cc3nc([C@H]4[C@@H]5CN(c6cc(Cl)cc(C#N)c6)C[C@@H]54)no3)c(=O)c21` [Example Compound 193, 3-chloro-5-((1R,5S,6r)-6-(5-((7-methyl-6-oxo-6,7-dihydro-1H-purin-1-yl)methyl)-1,2,4-oxadiazol-3-yl)-3-azabicyclo[3.1.0]hexan-3-yl)benzonitrile], the IC50 was 37.1 nM under setting [1] and 32 nM under setting [2].

As to `O=c1c2cccnc2ncn1Cc1nc([C@H]2[C@@H]3CN(c4ccccc4)C[C@@H]32)no1` [Example Compound 194, 3-((3-((1R,5S,6r)-3-phenyl-3-azabicyclo[3.1.0]hexan-6-yl)-1,2,4-oxadiazol-5-yl)methyl)pyrido[2,3-d]pyrimidin-4(3H)-one], the IC50 amounted to 20.1 nM under setting [1] and 15 nM under setting [2].

As to `O=c1c2ccncc2ncn1Cc1nc([C@H]2[C@@H]3CN(c4ccccc4)C[C@@H]32)no1` [Example Compound 195, 3-((3-((1R,5S,6r)-3-phenyl-3-azabicyclo[3.1.0]hexan-6-yl)-1,2,4-oxadiazol-5-yl)methyl)pyrido[3,4-d]pyrimidin-4(3H)-one], the IC50 by setting is: under setting [1], 99.4 nM; under setting [2], 110 nM.

In the case of `Cc1ccnc2ncn(Cc3nc([C@H]4C[C@](F)(c5ccc(F)cc5)C4)no3)c(=O)c12` [Example Compound 196, 3-((3-((1s,3s)-3-fluoro-3-(4-fluorophenyl)cyclobutyl)-1,2,4-oxadiazol-5-yl)methyl)-5-methylpyrido[2,3-d]pyrimidin-4(3H)-one], the IC50 by setting is: under setting [1], 13 nM; under setting [2], 30 nM.

Turning to `O=c1c2cccnc2ncn1Cc1nc([C@H]2C[C@](F)(c3cccc(F)c3)C2)no1` [Example Compound 197, 3-((3-((1s,3s)-3-fluoro-3-(3-fluorophenyl)cyclobutyl)-1,2,4-oxadiazol-5-yl)methyl)pyrido[2,3-d]pyrimidin-4(3H)-one], the IC50 under setting [1] came to 66.9 nM.

For `O=c1c2cccnc2ncn1Cc1nc([C@H]2C[C@](F)(c3cccc(Cl)c3)C2)no1` [Example Compound 198, 3-((3-((1s,3s)-3-(3-chlorophenyl)-3-fluorocyclobutyl)-1,2,4-oxadiazol-5-yl)methyl)pyrido[2,3-d]pyrimidin-4(3H)-one], under setting [1], the IC50 was determined as 58.7 nM.

Take `Cn1cnc2ncn(Cc3nc([C@H]4[C@@H]5CN(c6cccc(-c7cnco7)c6)C[C@@H]54)no3)c(=O)c21` [Example Compound 199, 7-methyl-1-((3-((1R,5S,6r)-3-(3-(oxazol-5-yl)phenyl)-3-azabicyclo[3.1.0]hexan-6-yl)-1,2,4-oxadiazol-5-yl)methyl)-1,7-dihydro-6H-purin-6-one]: the IC50 under setting [1] came out at 26.2 nM and the IC50 under setting [2] was determined as 22 nM.

On to `Cn1cc(-c2cccc(N3C[C@@H]4[C@H](C3)[C@H]4c3noc(Cn4cnc5ncn(C)c5c4=O)n3)c2)cn1` [Example Compound 200, 7-methyl-1-((3-((1R,5S,6r)-3-(3-(1-methyl-1H-pyrazol-4-yl)phenyl)-3-azabicyclo[3.1.0]hexan-6-yl)-1,2,4-oxadiazol-5-yl)methyl)-1,7-dihydro-6H-purin-6-one], for which the IC50 was determined as 38.4 nM under setting [1] and 17 nM under setting [2].

As for `Cn1cnc2ncn(Cc3nc([C@H]4[C@@H]5CN(c6cccc(-c7ccncc7)c6)C[C@@H]54)no3)c(=O)c21` [Example Compound 201, 7-methyl-1-((3-((1R,5S,6r)-3-(3-(pyridin-4-yl)phenyl)-3-azabicyclo[3.1.0]hexan-6-yl)-1,2,4-oxadiazol-5-yl)methyl)-1,7-dihydro-6H-purin-6-one], the IC50 reads like this: under setting [1], 67 nM; under setting [2], 66 nM.

Regarding `Cn1cnc2ncn(Cc3nc([C@H]4[C@@H]5CN(c6cccc(-n7cccn7)c6)C[C@@H]54)no3)c(=O)c21` [Example Compound 202, 1-((3-((1R,5S,6r)-3-(3-(1H-pyrazol-1-yl)phenyl)-3-azabicyclo[3.1.0]hexan-6-yl)-1,2,4-oxadiazol-5-yl)methyl)-7-methyl-1,7-dihydro-6H-purin-6-one], under setting [1], the IC50 was 50.1 nM.

Turning to `Cn1cnc2ncn(Cc3nc([C@H]4[C@@H]5CN(c6cccc(-c7cccnc7)c6)C[C@@H]54)no3)c(=O)c21` [Example Compound 203, 7-methyl-1-((3-((1R,5S,6r)-3-(3-(pyridin-3-yl)phenyl)-3-azabicyclo[3.1.0]hexan-6-yl)-1,2,4-oxadiazol-5-yl)methyl)-1,7-dihydro-6H-purin-6-one], the IC50 reads like this: under setting [1], 46.3 nM; under setting [2], 78 nM.

On to `Cn1cnc2ncn(Cc3nc([C@H]4[C@@H]5CN(c6ccc(Cl)cn6)C[C@@H]54)no3)c(=O)c21` [Example Compound 205, 1-((3-((1R,5S,6r)-3-(5-chloropyridin-2-yl)-3-azabicyclo[3.1.0]hexan-6-yl)-1,2,4-oxadiazol-5-yl)methyl)-7-methyl-1,7-dihydro-6H-purin-6-one], for which the 50% inhibitory concentration (IC50) reads like this: under setting [1], 496 nM; under setting [2], 86 nM.

Take `Cn1cnc2ncn(Cc3nc([C@H]4C[C@](F)(c5ccc(F)cc5)C4)no3)c(=O)c21` [Example Compound 206, 1-((3-((1s,3s)-3-fluoro-3-(4-fluorophenyl)cyclobutyl)-1,2,4-oxadiazol-5-yl)methyl)-7-methyl-1,7-dihydro-6H-purin-6-one]: the IC50 under setting [1] was determined as 313 nM.

`O=c1c2cccnc2ncn1Cc1nc([C@H]2C[C@](F)(c3ccc(F)cc3)C2)no1` [Example Compound 207, 3-((3-((1s,3s)-3-fluoro-3-(4-fluorophenyl)cyclobutyl)-1,2,4-oxadiazol-5-yl)methyl)pyrido[2,3-d]pyrimidin-4(3H)-one]: the IC50 under setting [1] was determined as 95 nM.

For `O=c1c2cccnc2ncn1Cc1nc([C@H]2C[C@H](c3ccc(Cl)cc3)C2)no1` [Example Compound 208, 3-((3-((1r,3r)-3-(4-chlorophenyl)cyclobutyl)-1,2,4-oxadiazol-5-yl)methyl)pyrido[2,3-d]pyrimidin-4(3H)-one], the IC50 under setting [1] amounted to 78.5 nM.

Turning to `Cn1cnc2ncn(Cc3nc([C@H]4C[C@H](c5cc(Cl)ccc5F)C4)no3)c(=O)c21` [Example Compound 209, 1-((3-((1r,3r)-3-(5-chloro-2-fluorophenyl)cyclobutyl)-1,2,4-oxadiazol-5-yl)methyl)-7-methyl-1,7-dihydro-6H-purin-6-one], the IC50 under setting [1] was determined as 886 nM.

Consider `Cc1ccnc2ncn(Cc3nc([C@H]4C[C@](F)(c5cccc(Cl)c5)C4)no3)c(=O)c12` [Example Compound 210, 3-((3-((1s,3s)-3-(3-chlorophenyl)-3-fluorocyclobutyl)-1,2,4-oxadiazol-5-yl)methyl)-5-methylpyrido[2,3-d]pyrimidin-4(3H)-one], for which the IC50 under setting [1] is 15.1 nM.

With `Cn1cnc2ncn(Cc3nc([C@H]4[C@@H]5CN(c6ccc7ncsc7c6)C[C@@H]54)no3)c(=O)c21` [Example Compound 211, 1-((3-((1R,5S,6r)-3-(benzo[d]thiazol-6-yl)-3-azabicyclo[3.1.0]hexan-6-yl)-1,2,4-oxadiazol-5-yl)methyl)-7-methyl-1,7-dihydro-6H-purin-6-one], the IC50 by setting is: under setting [1], 63.8 nM; under setting [2], 10 nM.

In the case of `Cn1cnc2ncn(Cc3nc([C@H]4[C@@H]5CN(c6cc(Cl)ccn6)C[C@@H]54)no3)c(=O)c21` [Example Compound 212, 1-((3-((1R,5S,6r)-3-(4-chloropyridin-2-yl)-3-azabicyclo[3.1.0]hexan-6-yl)-1,2,4-oxadiazol-5-yl)methyl)-7-methyl-1,7-dihydro-6H-purin-6-one], the IC50 runs as follows: under setting [1], 84.7 nM; under setting [2], 25 nM.

Regarding `O=c1c2cccnc2cnn1Cc1nc([C@H]2[C@@H]3CN(c4ccccc4)C[C@@H]32)no1` [Example Compound 213, 6-((3-((1R,5S,6r)-3-phenyl-3-azabicyclo[3.1.0]hexan-6-yl)-1,2,4-oxadiazol-5-yl)methyl)pyrido[2,3-d]pyridazin-5(6H)-one], the IC50 by setting is: (compounds incubated 10 minutes at room temperature before cinnamaldehyde agonist) 15.4 nM; under setting [3], 8.5 nM; under setting [1], 6.17 nM; under setting [2], 5.1 nM.

Turning to `O=c1c2cccnc2cnn1Cc1nc([C@H]2[C@@H]3CN(c4cccc(Cl)c4)C[C@@H]32)no1` [Example Compound 214, 6-((3-((1R,5S,6r)-3-(3-chlorophenyl)-3-azabicyclo[3.1.0]hexan-6-yl)-1,2,4-oxadiazol-5-yl)methyl)pyrido[2,3-d]pyridazin-5(6H)-one], the half-inhibitory concentration (IC50) under setting [1] is 2.88 nM.

Turning to `Cn1c(=O)c2c(ncn2Cc2nc([C@H]3[C@@H]4CN(c5cccc(Cl)c5)C[C@@H]43)no2)n(C)c1=O` [Example Compound 215, 7-((3-((1R,5S,6r)-3-(3-chlorophenyl)-3-azabicyclo[3.1.0]hexan-6-yl)-1,2,4-oxadiazol-5-yl)methyl)-1,3-dimethyl-3,7-dihydro-1H-purine-2,6-dione], the IC50 under setting [1] was found to be 56.5 nM.

Regarding `O=c1c2cccnc2ncn1Cc1nc([C@H]2[C@@H]3CN(c4cccc(Cl)c4)C[C@@H]32)no1` [Example Compound 216, 3-((3-((1R,5S,6r)-3-(3-chlorophenyl)-3-azabicyclo[3.1.0]hexan-6-yl)-1,2,4-oxadiazol-5-yl)methyl)pyrido[2,3-d]pyrimidin-4(3H)-one], the IC50 by setting is: under setting [3], 13 nM; under setting [1], 13.8 nM.

On to `Cn1cnc2ncn(Cc3nc([C@H]4C[C@H](Oc5cccc(Cl)c5)C4)no3)c(=O)c21` [Example Compound 217, 1-((3-((1r,3r)-3-(3-chlorophenoxy)cyclobutyl)-1,2,4-oxadiazol-5-yl)methyl)-7-methyl-1,7-dihydro-6H-purin-6-one], for which the IC50 under setting [1] stood at 38 nM.
